According to US20040138193A1, “Oestrogen fatty acid monoester as a hypolipidaemic and antidiabetic agent” (priority 2001, published 2004):

Key:
Zucker fa/fa rat = assay: Plasma parameters after 10 days of daily oral gavage in Zucker fa/fa rats (type 2 diabetes model); assay type: in vivo; conditions: for plasma 3-hydroxybutyrate / plasma non-esterified fatty acids / plasma glucose / plasma insulin / plasma total cholesterol / plasma triacylglycerols: 10 days
Protocol: A study was carried out using the Zucker fa/fa rat as experimental animal model for type 2 diabetes. In these rats a marked insulin resistance is known; their circulating glucose levels are somewhat higher than in normal rats, but their insulin levels are much higher and show marked hypertriacylglycerolemia and hypercholesterolemia. Four groups of adult Zucker fa/fa rats were used, two groups of 6 male rats each and two groups of 6 female rats each. For each sex, the first group was used as control and the other was treated with the drug. All rats were kept under standard housing conditions, with free access to water and pellet food. The animals received a daily gavage of 0.2 ml of sunflower oil by means of a stomach tube. In the treated-rat groups, the oil contained enough oleoyl-estrone dissolved to provide a daily dose of 10 micromol per kg of rat weight. After 10 days of daily gavages, the rats were killed and their blood was recovered, being used to obtain plasma by centrifugation. Plasma samples were used for the analysis of glucose, total cholesterol and triacylglycerols by means of a dry-strip procedure (Spotchem, Menarini, Firenze, Italy), the levels of 3-hydroxybutyrate were measured with the kit 907979 from Boehringer Mannheim (Mannheim, Germany), and non-esterified fatty acids with the kit 1383175 from the same company. Insulin levels were measured through radioimmunoassay (rat insulin kit, Amersham, Amersham, United Kingdom).

Wistar female rats = assay: Dose dependence of plasma parameters after 10 days of daily oral gavage in normal Wistar female rats; assay type: in vivo, rat; conditions: for plasma 3-hydroxybutyrate / plasma glucose / plasma insulin / plasma non-esterified fatty acids / plasma total cholesterol / plasma triacylglycerols: female Wistar rats, 10 days
Protocol: Eight groups of 6 normal Wistar female rats each were used. The animals were kept under standard housing conditions and had free access to pellet food and tap water. All the rats received a daily oral gavage of 0.2 ml of sunflower oil through a stomach tube. This oil contained different amounts of oleoyl-estrone so that the rats received daily doses of 0, 0.2, 0.5, 1, 2, 5, 10 or 20 micromols per kg of body weight. After 10 days of daily gavages, the rats were killed and their blood extracted and used to obtain plasma through centrifugation. Plasma samples were used for the analysis of glucose, total cholesterol and triacylglycerols by means of a dry-strip procedure (Spotchem, Menarini, Firenze, Italy), the levels of 3-hydroxybutyrate were measured with the kit 907979 from Boehringer Mannheim (Mannheim, Germany), and non-esterified fatty acids with the kit 1383175 from the same company. Insulin levels were measured through radioimmunoassay (rat insulin kit, Amersham, Amersham, United Kingdom).

[1] = Zucker fa/fa rats, oral treatment vs controls
[2] = Zucker fa/fa rats, oral treatment vs controls, P<0.05
[3] = female obese Zucker fa/fa rats, 10 μmol/kg · d oral gavage
[4] = female obese Zucker fa/fa rats, 10 mol/kg · d oral gavage
[5] = male obese Zucker fa/fa rats, 10 μmol/kg · d oral gavage
[6] = Wistar female rats, doses 0.2-20 micromols per kg, ANOVA P<0.05

## CCCCCCCC/C=C\CCCCCCCC(=O)Oc1ccc2c(c1)CC[C@@H]1[C@@H]2CC[C@]2(C)C(=O)CC[C@@H]12 [oleoyl-estrone]
Zucker fa/fa rat; [1]
  change in 3-hydroxybutyrate: no changes
  change in insulin levels: marked decrease
  change in non-esterified fatty acids: no changes
Zucker fa/fa rat; [2]
  change in plasma concentration of glucose: significant decreases
  change in plasma concentration of total cholesterol: significant decreases
  change in plasma concentration of triacylglycerols: significant decreases
Zucker fa/fa rat; [3]
  plasma 3-hydroxybutyrate: 187 ± 26 µM
  plasma non-esterified fatty acids: 642 ± 52 µM
Zucker fa/fa rat; [4]
  plasma glucose: 4.91 ± 0.17 mM
  plasma insulin: 1.78 ± 0.21 nM
  plasma total cholesterol: 1.59 ± 0.29 mM
  plasma triacylglycerols: 1.80 ± 0.17 mM
Zucker fa/fa rat; [5]
  plasma 3-hydroxybutyrate: 281 ± 31 µM
  plasma glucose: 6.14 ± 0.13 mM
  plasma insulin: 1.11 ± 0.12 nM
  plasma non-esterified fatty acids: 720 ± 110 µM
  plasma total cholesterol: 1.77 ± 0.26 mM
  plasma triacylglycerols: 1.88 ± 0.19 mM
Wistar female rats; Wistar female rats, 10 days oral gavage
  doses giving lower insulin values than controls: ≥ 1 micromol/kg and day
Wistar female rats; [6]
  change in circulating levels of 3-hydroxybutyrate: no globally significant changes
  change in circulating levels of glucose: no globally significant changes
  change in circulating levels of non-esterified fatty acids: no globally significant changes
  change in circulating levels of triacylglycerols: no globally significant changes
Wistar female rats; Wistar female rats, vs controls
  drop in insulin levels: significant
Wistar female rats; daily gavage 0.2 μmol/kg · d
  plasma 3-hydroxybutyrate: 291 ± 40 µM
  plasma glucose: 6.35 ± 0.47 mM
  plasma insulin: 0.624 nM
  plasma non-esterified fatty acids: 184 ± 31 µM
  plasma total cholesterol: 1.21 ± 0.12 mM
  plasma triacylglycerols: 1.57 ± 0.43 mM
Wistar female rats; daily gavage 0.5 μmol/kg · d
  plasma 3-hydroxybutyrate: 189 ± 41 µM
  plasma glucose: 5.74 ± 0.31 mM
  plasma insulin: 0.497 ± 0.067 nM
  plasma non-esterified fatty acids: 273 ± 47 µM
  plasma total cholesterol: 1.02 ± 0.08 mM
  plasma triacylglycerols: 1.79 ± 0.23 mM
Wistar female rats; daily gavage 1 μmol/kg · d
  plasma 3-hydroxybutyrate: 305 ± 56 µM
  plasma glucose: 5.71 ± 0.46 mM
  plasma insulin: 0.241 ± 0.044 nM
  plasma non-esterified fatty acids: 147 ± 30 µM
  plasma total cholesterol: 1.13 ± 0.15 mM
  plasma triacylglycerols: 1.26 ± 0.26 mM
Wistar female rats; daily gavage 2 μmol/kg · d
  plasma 3-hydroxybutyrate: 263 ± 27 µM
  plasma glucose: 5.76 ± 0.20 mM
  plasma insulin: 0.280 ± 0.036 nM
  plasma non-esterified fatty acids: 281 ± 44 µM
  plasma total cholesterol: 1.01 ± 0.27 mM
  plasma triacylglycerols: 1.70 ± 0.11 mM
Wistar female rats; daily gavage 5 μmol/kg · d
  plasma 3-hydroxybutyrate: 300 ± 64 µM
  plasma glucose: 5.64 ± 0.21 mM
  plasma insulin: 0.275 ± 0.053 nM
  plasma non-esterified fatty acids: 213 ± 48 µM
  plasma total cholesterol: 1.03 ± 0.13 mM
  plasma triacylglycerols: 1.91 ± 0.33 mM
Wistar female rats; daily gavage 10 μmol/kg · d
  plasma 3-hydroxybutyrate: 301 ± 42 µM
  plasma glucose: 5.90 ± 0.31 mM
  plasma insulin: 0.262 ± 0.050 nM
  plasma non-esterified fatty acids: 152 ± 24 µM
  plasma total cholesterol: 0.66 ± 0.09 mM
  plasma triacylglycerols: 1.39 ± 0.14 mM
Wistar female rats; daily gavage 20 μmol/kg · d
  plasma 3-hydroxybutyrate: 237 ± 47 µM
  plasma glucose: 5.62 ± 0.20 mM
  plasma insulin: 0.223 ± 0.041 nM
  plasma non-esterified fatty acids: 122 ± 39 µM
  plasma total cholesterol: 0.53 ± 0.05 mM
  plasma triacylglycerols: 0.92 ± 0.11 mM
